Laboratory results from patent publication US5478864A, “Method for disinfection using a 1,n-bis(N^5 -trifluoromethyl-phenyl-N^1 -biguanido)-alkane” (Mitsubishi Materials Corp., priority 1991, dated 1995).
≈ marks a conversion by molar mass, not a printed value.

Legend:
Assay type in all cases: cell-based
[1] = tested on: Achromobacter xylosoxidans RIMD 0101001; test: minimum growth inhibition concentration, agar dilution; settings: RIMD0101001, Mueller-Hinton agar, digluconate
Experimental: (§1) Germicidal activity of the compound prepared in Example 1 (Compound I) was evaluated by the minimum growth inhibition concentration method (based on the standard method stipulated by Japan Society of Chemotherapy) and the phenol coefficient method.
(§2) A portion of the digluconate salt of the compound of Example 1 was dissolved in water and the solution was heated to dryness on a water bath. The dried salt was dissolved in acetic acid (potentiometric titration grade) and the concentration thereof was determined by potentiometric titration using a perchloric acid solution. The gluconate acid salt solution, whose concentration was thus determined, was diluted to predetermined concentrations with sterilized water. Each 1 ml of the solution of each concentration was placed in a Petri dish, 9 ml of Mueller-Hinton agar (supplied by Difco) was added thereto and well mixed. Thus sensitivity test media were prepared. The concentrations of the compound were 200 μg/ml and 2^n times wherein (n=-8 to 2). Separately, microorganism strains indicated in Table 1 were subcultured in propagation media (using Mueller-Hinton broth supplied by Difco) at 37° C. for 24 hours. The microorganism concentration was adjusted to 10^6 /ml. The thus obtained cultures were respectively inoculated on a series of sensitivity measuring culture media using an inoculation rod. […] The results are shown in Table 1 together with the result on chlorhexidine as a control.
(§3) Disinfecting effect of the above-prepared compounds was tested by measurement of minimum growth inhibition concentration and by the test for immediate effect in the same manner as in Example 3.

[2] = tested on: Flavobacterium meningosepticum RIMD 0614002; test: as above; settings: Elizabethkingia meningoseptica, RIMD0614002; Mueller-Hinton agar; digluconate
Experimental: as §1, §2, §3

[3] = tested on: Alcaligenes faecalis IPO 13111; test: as above; settings: IPO13111, Mueller-Hinton agar, digluconate
Experimental: as §1, §2, §3

[4] = tested on: Klebsiella pneumoniae IID 865; test: as above; settings: IID865, Mueller-Hinton agar, digluconate, read-out: MIC
Experimental: as §1, §2, §3

[5] = tested on: Escherichia coli IID 861; test: as above; settings: IID861, Mueller-Hinton agar, digluconate, IID 861, read-out: MIC
Experimental: as §1, §2, §3

[6] = tested on: Escherichia coli NIHJ JC-2; test: as above; settings: NIHJJC2, Mueller-Hinton agar, digluconate, NIHJ JC-2, read-out: MIC
Experimental: as §1, §2, §3

[7] = tested on: Staphylococcus epidermis IID 866; test: as above; settings: IID866, Mueller-Hinton agar, digluconate, IID 866, read-out: MIC
Experimental: as §1, §2, §3

[8] = tested on: Pseudomonas aerugimosa (clinically collected); test: as above; settings: Mueller-Hinton agar, digluconate
Experimental: as §1, §2, §3

[9] = tested on: Proteus vulgaris IID 874; test: as above; settings: IID874, Mueller-Hinton agar, digluconate
Experimental: as §1, §2, §3

[10] = tested on: Pseudomonas cepacia (collected Chiba Univ.); test: as above; settings: Burkholderia cepacia, Mueller-Hinton agar, digluconate
Experimental: as §1, §2, §3

[11] = tested on: Serratia marcescens IID 602; test: as above; settings: IID602, Mueller-Hinton agar, IID 602, read-out: MIC
Experimental: as §1, §2
(§4) Compounds of formula I, wherein the trifluoromethyl group is located at the p-position and n is 2, 3, 5, 8 and 11, were prepared starting from ethylene diamine dichloride, 1,3-propane diamine dichloride, 1,5-pentane diamine dichloride, 1,8-octane diamine dichloride or 1,11-undecane diamine dichloride, sodium dicyanamide and 4-trifluoromethyl aniline hydrochloride in accordance with the procedures as described above and minimum growth inhibition concentration (MIC) was determined in the same manner as above.
as §3
(§5) Compounds of formula I, wherein the trifluoromethyl group is located at the m-position and n is 2, 3, 5 and 8, 11 were prepared starting from ethylene diamine dihydrochloride, 1,3-propane diamine dihydrochloride, 1,5-pentane diamine dihydrochloride, 1,8-octane diamine dihydrochloride or 1,11-undecane diamine dihydrochloride, sodium dicyanamide and 3-trifluoromethylaniline hydrochloride in accordance with the procedures of Example 4 and germicidal activity thereof were determined in the same manner.

[12] = tested on: Pseudomonas aeruginosa IID 1042; test: as above; settings: Pseudomonas aeruginosa, IID1042, Mueller-Hinton agar, read-out: MIC
Experimental: as §1, §2, §4, §3, §5

[13] = tested on: Escherichia coli IID 951; test: as above; settings: IID951, Mueller-Hinton agar, IID 951, read-out: MIC
Experimental: as §1, §2, §4, §3, §5

[14] = tested on: Staphylococcus aureus FDA 209-P; test: as above; settings: FDA209, Mueller-Hinton agar
Experimental: as §1, §2, §4, §3, §5

[15] = tested on: other microorganisms; test: minimum growth inhibition concentration, other microorganisms of Table 1; settings: against other microorganisms
Experimental: as §1
A portion of the digluconate salt of the compound of Example 1 was dissolved in water and the solution was heated to dryness on a water bath. The dried salt was dissolved in acetic acid (potentiometric titration grade) and the concentration thereof was determined by potentiometric titration using a perchloric acid solution. The gluconate acid salt solution, whose concentration was thus determined, was diluted to predetermined concentrations with sterilized water. Each 1 ml of the solution of each concentration was placed in a Petri dish, 9 ml of Mueller-Hinton agar (supplied by Difco) was added thereto and well mixed. Thus sensitivity test media were prepared. The concentrations of the compound were 200 μg/ml and 2^n times wherein (n=-8 to 2). Separately, microorganism strains indicated in Table 1 were subcultured in propagation media (using Mueller-Hinton broth supplied by Difco) at 37° C. for 24 hours. The microorganism concentration was adjusted to 10^6 /ml. The thus obtained cultures were respectively inoculated on a series of sensitivity measuring culture media using an inoculation rod. […]

[16] = tested on: Staphylococcus aureus (clin'ly col'ted MRSA); test: minimum growth inhibition concentration, agar dilution (first MRSA line); settings: Mueller-Hinton agar, digluconate, clinically collected MRSA, first line, read-out: MIC
Experimental: as §1, §2, §3

[17] = tested on: Staphylococcus aureus (clin'ly col'ted MRSA); test: minimum growth inhibition concentration, agar dilution (second MRSA line); settings: Mueller-Hinton agar, digluconate, clinically collected MRSA
Experimental: as §1, §2, §3

[18] = tested on: Pseudomonas aeruginosa IID 1042; test: test for immediate effect (phenol coefficient method); settings: of three runs, conc. 0.03%, 20° C.
Experimental: (§6) Immediate effect of this compound was evaluated in accordance with the phenol coefficient method described in "Directions for Hygienic Tests" compiled by the Ministry of Health and Welfare of Japan. The method is as follows. (1) Culture medium Each 10 ml of the bouillon described below was taken into test tubes and they were sterilized with high pressure steam at 120° C. for 20 minutes. (2) Test method Diluted solutions of a series of concentrations of the sample compound were prepared for each of microorganisms listed in Table 2. Each 10 ml of the solutions was put into an appraisal test tube and the test tubes were placed in a thermostat bath kept at 20° C. Each microorganism was subcultured in the above described bouillon medium for testing disinfectants for three generations (37° C. for 48 hours). Each 1 ml of each culture was placed in each of the above-described series of appraisal test tubes and well mixed. After 2.5, 5, 10 and 15 minutes, 0.1 ml of the content of each appraisal test tube was taken and inoculated onto each portion of the bouillon medium for testing disinfectants. […] Each test was carried out three times. Immediate effect of disinfectants was compared by number of test runs in which microorganism growth was observed. […]

[19] = tested on: Escherichia coli IID 861; test: as above; settings: of three runs, conc. 0.001%, 20° C.
Experimental: as §6

[20] = tested on: Staphylococcus aureus FDA 209-P; test: as above; settings: of three runs, conc. 0.0005%, 20° C.
Experimental: as §6

N=C(NCCCCCCNC(=N)NC(=N)Nc1ccc(C(F)(F)F)cc1)NC(=N)Nc1ccc(C(F)(F)F)cc1 [Ex. 1, 1,6-bis(N^5-p-trifluoromethylphenyl-N^1-biguanido)-hexane]
MIC [1]: 50 µg/mL (≈ 87.3 µM) | MIC [2]: 200 µg/mL (≈ 349 µM) | MIC [3]: 6.25 µg/mL (≈ 10.9 µM) | MIC [4]: 3.13 µg/mL (≈ 5.47 µM) | MIC [5]: 3.13 µg/mL (≈ 5.47 µM) | MIC [6]: 3.13 µg/mL (≈ 5.47 µM) | MIC [7]: 1.56 µg/mL (≈ 2.72 µM) | MIC [8]: 12.5 µg/mL (≈ 21.8 µM) | MIC [9]: 25 µg/mL (≈ 43.7 µM) | MIC [10]: 50 µg/mL (≈ 87.3 µM) | MIC [11]: 6.25 µg/mL (≈ 10.9 µM) | MIC [12]: 12.5 µg/mL (≈ 21.8 µM) | MIC [13]: 3.13 µg/mL (≈ 5.47 µM) | MIC [14]: 1.56 µg/mL (≈ 2.72 µM) | germicidal effect compared with chlorhexidine [15]: effective at the same level as chlorhexidine | MIC [16]: 6.25 µg/mL (≈ 10.9 µM) | MIC [17]: 1.56 µg/mL (≈ 2.72 µM) | number of test runs in which microorganism growth was observed ([18]; contact time 2.5 min): 0 | number of test runs in which microorganism growth was observed ([18]; contact time 5.0 min): 0 | number of test runs in which microorganism growth was observed ([18]; contact time 10.0 min): 0 | number of test runs in which microorganism growth was observed ([18]; contact time 15.0 min): 0 | number of test runs in which microorganism growth was observed ([19]; contact time 2.5 min): 3 | number of test runs in which microorganism growth was observed ([19]; contact time 5.0 min): 3 | number of test runs in which microorganism growth was observed ([19]; contact time 10.0 min): 2 | number of test runs in which microorganism growth was observed ([19]; contact time 15.0 min): 1 | number of test runs in which microorganism growth was observed ([20]; contact time 2.5 min): 0 | number of test runs in which microorganism growth was observed ([20]; contact time 5.0 min): 0 | number of test runs in which microorganism growth was observed ([20]; contact time 10.0 min): 0 | number of test runs in which microorganism growth was observed ([20]; contact time 15.0 min): 0
